The record followed here is publication PMC7823355, “Pretreatment Effect of Inflammatory Stimuli and Characteristics of Tryptophan Transport on Brain Capillary Endothelial (TR-BBB) and Motor Neuron Like (NSC-34) Cell Lines” (Biomedicines, 2020).

The structures appear in SMILES notation. Like-named read-outs stand apart in the source and are kept apart here.

What all share (format): cell-based
For test [1], the target named is T1, LAT1 (L-type amino acid transporter 1) (Rattus norvegicus, UniProt Q63016).
T1 construct: gene Slc7a5; endogenous LAT1 in TR-BBB cells
T1 sequence (Q63016 whole entry): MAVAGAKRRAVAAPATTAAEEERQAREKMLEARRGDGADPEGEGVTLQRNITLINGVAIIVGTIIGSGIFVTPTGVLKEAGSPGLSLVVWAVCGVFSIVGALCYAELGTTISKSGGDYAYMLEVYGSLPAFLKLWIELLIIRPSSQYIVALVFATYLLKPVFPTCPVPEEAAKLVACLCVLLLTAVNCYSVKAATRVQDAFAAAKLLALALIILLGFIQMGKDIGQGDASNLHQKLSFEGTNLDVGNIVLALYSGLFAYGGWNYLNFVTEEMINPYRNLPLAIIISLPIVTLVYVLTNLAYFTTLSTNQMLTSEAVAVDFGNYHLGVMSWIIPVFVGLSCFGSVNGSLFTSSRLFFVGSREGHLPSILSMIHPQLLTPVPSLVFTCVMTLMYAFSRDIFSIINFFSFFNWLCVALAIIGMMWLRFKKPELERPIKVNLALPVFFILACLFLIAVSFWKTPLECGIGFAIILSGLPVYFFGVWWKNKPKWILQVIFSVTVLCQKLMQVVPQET
Briefly: competitive inhibition of [3H]L-tryptophan uptake in TR-BBB cells (Lineweaver-Burk).

Test [2] concerns the target T2, LAT1 (L-type amino acid transporter 1) (Mus musculus, UniProt Q9Z127).
T2 construct: gene Slc7a5; endogenous LAT1 in NSC-34 (hSOD1^WT) cells
Put plainly: radiolabelled uptake kinetics (Km) in NSC-34 cells, with LAT1 siRNA knockdown. An excerpt:
radiolabelled uptake kinetics (Km) in NSC-34 cells, with LAT1 siRNA knockdown on LAT1 (L-type amino acid transporter 1) | LAT1 mRNA expression and tryptophan uptake results indicated significant depletion effect in LAT1 siRNA-transfected WT and MT cell lines

For test [3], the target named is T1, LAT1 (L-type amino acid transporter 1). Briefly: inhibition of [3H]L-tryptophan uptake in TR-BBB cells at […] ([…] of control). Conditions: read-out: Relative Uptake / (% of Control).

T2 sequence (Q9Z127 whole entry): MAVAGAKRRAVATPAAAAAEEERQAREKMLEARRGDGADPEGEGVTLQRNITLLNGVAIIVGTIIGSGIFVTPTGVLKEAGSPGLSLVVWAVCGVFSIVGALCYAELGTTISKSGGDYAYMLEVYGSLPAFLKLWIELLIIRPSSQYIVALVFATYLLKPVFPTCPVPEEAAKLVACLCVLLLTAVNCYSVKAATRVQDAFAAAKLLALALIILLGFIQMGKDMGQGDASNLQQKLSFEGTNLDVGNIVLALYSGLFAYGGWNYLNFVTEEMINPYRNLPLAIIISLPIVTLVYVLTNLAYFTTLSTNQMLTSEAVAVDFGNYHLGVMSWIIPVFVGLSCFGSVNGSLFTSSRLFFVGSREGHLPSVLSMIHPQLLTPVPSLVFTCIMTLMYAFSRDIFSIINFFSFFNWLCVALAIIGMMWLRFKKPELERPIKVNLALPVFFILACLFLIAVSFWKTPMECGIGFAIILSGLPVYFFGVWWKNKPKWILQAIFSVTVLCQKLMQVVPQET

Compound `NCC1(CC(=O)O)CCCCC1` [Gabapentin] displayed a Ki in test [1] of 210 µM.
With `N[C@@H](Cc1c[nH]c2ccccc12)C(=O)O` [L-tryptophan], the Km in test [2] was 33.1 ± 1.2 µM.
Take `NC1(C(=O)O)CC2CCC1C2` (stereo not shown) [BCH]: the remaining activity at 2000 µM in test [3] was determined as 21 ± 1.3%.
In the case of `NCC(CC(=O)O)c1ccc(Cl)cc1` (stereo not shown) [Baclofen], the Ki in test [1] (read-out: Ki) is 1620 µM.

By Ki is commonly meant the dissociation constant of the complex between target and ligand, obtained from inhibition or displacement. In general, Km refers to the concentration of substrate that gives half-maximal velocity.
